Experimental data as given in patent publication US10258607B2, “Method of increasing intratumoral pHe and reducing acid-mediated invasion” (H. Lee Moffitt Cancer Center and Research Institute, Inc., priority 2009, dated 2019).
“Also recorded” adds a separate entry of the source. Blank lines part the entries; values can stand above or below the compound they belong to.

Tests used:
[1] = cited from earlier work
[2] = test system: widely metastatic renal cancer; assay: Case report: patient with metastatic renal cancer
[3] = test system: spontaneous and experimental metastases; conditions: chronic consumption of sodium bicarbonate solution; cited from earlier work
[4] = 25-50 grams daily, greater than 1 year, patients with renal tubular acidosis and sickle cell anemia; cited from earlier work
[5] = test system: luciferase-expressing PC3M prostate cancer cells; assay: In vivo experimental lung metastasis model, IEPA in drinking water; set-up: species or system mice
Protocol: FIG. 10 illustrates (A) the chemical structure of IEPA and (B) an experimental timetable. For the experiment mice (n=10) were started on 200 mM IEPA, or tap water (n=10) at time 0. Four days later 5×10^6 PC3M cells were injected intravenously in to the mice. Images were acquired weekly, and animal were euthanized at week 6 post-injections
Mice were imaged in a ventral view weekly for 6 weeks using the in vivo Imaging System (IVIS, Xenogen).
A region of interest (ROI) was manually selected over the signal intensity. The area of the ROI was kept constant and the intensity was recorded as maximum [photons/sec].
In these experiments, 10 mice were provided with ad libidum 200 mM of 2-imidazole-1-yl-3-ethoxycarbonylpropionic acid (IEPA) in their drinking water and 10 mice were maintained on water.
Four days after initiation of therapy, all animals were injected with luciferase-expressing PC3M prostate cancer cells. […] NMR in biomedicine 2002; 15(2):114-9; van Sluis R, et al., In vivo imaging of extracellular pH using 1H MRSI. Magn Reson Med 1999; 41(4):743-50].

[6] = high doses; cited from earlier work
[7] = self-administered 40 grams of NaHCO3 daily, scans Dec. 5, 2007 and Apr. 18, 2008

Structure (SMILES): NCCCC[C@H](N)C(=O)O [free-base lysine, L-lysine]
pKa1 ([1]; L-lysine with three pKa's): 2.20
pKa2 ([1]; L-lysine with three pKa's): 8.90
pKa3 ([1]; L-lysine with three pKa's): 10.28

Structure (SMILES): CCN(CC)CCNC(=O)c1c(C)[nH]c(/C=C2\C(=O)Nc3ccc(F)cc32)c1C [Sutent]
tumor response ([2]; first line treatment of liver metastatic disease): the tumor progressed

Structure (SMILES): C[N+](C)(C)CCN [cholamine chloride]
pKa [1]: 7.1

Structure (SMILES): O=C([O-])O.[Na+] [NaHCO3, sodium bicarbonate]
tolerability ([2]; "very high" bicarbonate administration for nearly 1 year): without complication
duration of stable tumor ([2]; person, approximately 60 grams of bicarbonate in water daily with vitamins, supplements, no conventional therapy): 10 months
central necrosis of tumors on follow-up CT scan [2, 7]: no longer present
liver lesions on CT scans [2, 7]: some of the liver lesions have increased in size, some have decreased in size, and some have remained stable
spontaneous and experimental metastases [3]: inhibited
adverse effects on chronic administration [4]: without adverse affects

animal weight / weight gain and grooming behavior vs controls ([5]; 200 mM IEPA in drinking water): not different from controls
Structure (SMILES): CCOC(=O)CC(C(=O)O)n1ccnc1 (stereo not drawn) [IEPA, 2-imidazole-1-yl-3-ethoxycarbonylpropionic acid]
lung metastases compared to control group ([5]; 200 mM IEPA in drinking water from 4 days before i.v. injection of 5×10^6 PC3M cells, weekly imaging for 6 weeks, p<0.02): significantly fewer lung metastases; also recorded: significantly inhibits lung metastasis
mean in vivo photon count, whole animal and lungs, vs tap water group ([5]; 200 mM IEPA in drinking water, p<0.002 Wilcoxon two sample test): significantly different
toxicity in vivo [6]: non-toxic at high doses
